Patent US4248883A, “1-(3-Mercapto-2-methylpropanoyl)prolyl amino acid derivatives and salts thereof, processes for their preparation, and pharmaceutical compositions containing such compounds” (Dainippon Pharmaceutical Co., Ltd., priority 1978, dated 1981)
Like-named read-outs stand apart in the source and are kept apart here.

Legend:
mice = test: Test 2: toxicity (acute LD50 in mice); conditions: mice
Description: (§1) Male STD-ddY strain mice, weighing 21 to 24 grams, were used.

in vivo = conditions: mouse, in vivo
Description: as §1

[1] = system: Goldblatt two-kidney renal hypertensive rats; test: Test 1: antihypertensive activity, oral, tail-plethysmographic blood pressure in Goldblatt two-kidney renal hypertensive rats; assay type: in vivo, rat (male STD Wistar strain); conditions: for change in vivo at 100 µmol/kg: Rattus norvegicus; for Peak time (time at which the maximum hypotensive effect was observed): renal hypertensive rats; for antihypertensive effect time course relative to compound 1 (SQ-14225), FIGS. 1 and 2: single oral, 0.015 millimole/kg and 0.1 millimole/kg, mean of six animals
Description: The contralateral kidney and its renal artery were left intact. The animals were maintained on commercial rat chow and tap water ad libitum.
In each Figure, the ordinate represents the changes in blood pressure (mmHg) and the abscissa, the time (hours) elapsed after oral administration.

[2] = system: experimental hypertensive animals; conditions: Science 196, 441 (1977); cited from earlier work
[3] = system: angiotensin I-converting enzyme; conditions: Science 196, 441 (1977); cited from earlier work
[4] = system: angiotensin I-converting enzyme; conditions: Biochemistry, 16, 5484 (1977); cited from earlier work
[5] = oral, 0.1 millimole/kg, 7 hours after administration, % of initial blood pressure, read-out: Change in blood pressure, 7 hours after administration (%)
[6] = oral, 0.1 millimole/kg, at peak time, % of initial blood pressure, read-out: Change in blood pressure, peak time (%)
[7] = oral, 0.1 millimole/kg, 7 hours after administration
[8] = oral, 0.1 millimole/kg, at peak time
[9] = oral, 0.1 millimole/kg, positive = decrease

Compound | toxicity (in words) (mice) | LD50 (in vivo; iv) [mg/kg] | LD50 (in vivo; po) [mg/kg] | change in vivo at 100 µmol/kg [1, 5] [%] | change in vivo at 100 µmol/kg [1, 6] [%] | Change in blood pressure, 7 hours after administration [1, 7] [mmHg] | Change in blood pressure, peak time [1, 8] [mmHg] | Peak time (time at which the maximum hypotensive effect was observed) ([1]; oral, 0.1 millimole/kg) [h] | antihypertensive effect time course relative to compound 1 (SQ-14225), FIGS. 1 and 2 [1] | antihypertensive activity in experimental hypertensive animals [2] | inhibitory activity in vivo on angiotensin I-converting enzyme [3] | change in vivo at 100 µmol/kg ([1]; po, 7 h, read-out: Change in blood pressure, 7 hours after administration (%)) [%] | change in vivo at 100 µmol/kg ([1]; po, read-out: Change in blood pressure, peak time (%)) [%] | decrease in initial blood pressure at 7 hours after medication [1, 9] [%] | maximum hypotensive response (decrease in initial blood pressure) [1, 9] [%] | inhibition of angiotensin I-converting enzyme in vitro [4] | reduction of blood pressures (in words) ([1]; oral, 0.1 millimole/kg)
CC(=O)SC[C@@H](C)C(=O)N1CCC[C@H]1C(=O)N[C@@H](Cc1ccccc1)C(=O)O [A, 1-(D-3-Acetylthio-2-methylpropanoyl)-L-prolyl-L-phenylalanine] | very weak | > 1000 | > 6000 | -16 | -17 | -33 | -35 | 5 | milder and more prolonged antihypertensive effect | – | – | – | – | – | – | – | –
CCC(=O)SC[C@@H](C)C(=O)N1CCC[C@H]1C(=O)N[C@@H](Cc1ccccc1)C(=O)O [B, 1-(D-3-Propanoylthio-2-methylpropanoyl)-L-prolyl-L-phenylalanine] | very weak | > 1000 | > 6000 | -17 | -18 | -36 | -40 | 5 | milder and more prolonged antihypertensive effect | – | – | – | – | – | – | – | –
C[C@H](CSC(=O)C(C)(C)C)C(=O)N1CCC[C@H]1C(=O)N[C@@H](Cc1ccccc1)C(=O)O [C, 1-[D-3-(2,2-Dimethylpropanoyl)thio-2-methylpropanoyl]-L-prolyl-L-phenylalanine] | – | – | – | -18 | -20 | -37 | -41 | 5 | – | – | – | – | – | – | – | – | –
C[C@H](CS)C(=O)N1CCC[C@H]1C(=O)O [Compound 1, 1-(D-3-Mercapto-2-methylpropanoyl)-L-proline, reference compound] | – | – | – | – | – | -15 | -35 | – | – | superior antihypertensive activity | potent inhibitory activity in vivo | -8 | -18 | 8 | 18 | particularly good inhibitor of angiotensin I-converting enzyme | –
C[C@H](CS)C(=O)N1CCC[C@H]1C(N)=O [Compound 2, 1-(D-3-Mercapto-2-methylpropanoyl)-L-proline amide, reference compound] | – | – | – | -1 | -3 | -1 | -5 | 2 | – | – | – | – | – | – | – | – | did not reduce blood pressures
CC(=O)SC[C@@H](C)C(=O)N1CCC[C@H]1C(N)=O [Compound 3, 1-(D-3-Acetylthio-2-methylpropanoyl)-L-proline amide, reference compound] | – | – | – | -2 | -4 | -4 | -7 | 2 | – | – | – | – | – | – | – | – | did not reduce blood pressures
CC(C)C(=O)SC[C@@H](C)C(=O)N1CCC[C@H]1C(=O)N[C@@H](Cc1ccccc1)C(=O)O [D, 1-[D-3-(2-Methylpropanoyl)thio-2-methylpropanoyl]-L-prolyl-L-phenylalanine] | – | – | – | -14 | -18 | -29 | -37 | 5 | – | – | – | – | – | – | – | – | –
CCSSC[C@@H](C)C(=O)N1CCC[C@H]1C(=O)N[C@@H](Cc1ccccc1)C(=O)O [E, 1-(D-3-Ethyldithio-2-methylpropanoyl)-L-prolyl-L-phenylalanine] | – | – | – | -19 | -19 | -38 | -38 | 7 | – | – | – | – | – | – | – | – | –
C[C@H](CSC(=O)c1ccccc1)C(=O)N1CCC[C@H]1C(=O)N[C@@H](Cc1ccccc1)C(=O)O [F, 1-(D-3-Benzoylthio-2-methylpropanoyl)-L-prolyl-L-phenylalanine] | – | – | – | -15 | -15 | -31 | -31 | 5 | – | – | – | – | – | – | – | – | –
COC(=O)[C@H](Cc1ccc(O)cc1)NC(=O)[C@@H]1CCCN1C(=O)[C@H](C)CSC(C)=O [G, 1-(D-3-Acetylthio-2-methylpropanoyl)-L-prolyl-L-tyrosine methyl ester] | – | – | – | -15 | -17 | -29 | -33 | 5 | – | – | – | – | – | – | – | – | –
CCOC(=O)[C@H](Cc1ccc(O)cc1)NC(=O)[C@@H]1CCCN1C(=O)[C@H](C)CSC(C)=O [H, 1-(D-3-Acetylthio-2-methylpropanoyl)-L-prolyl-L-tyrosine ethyl ester] | – | – | – | -14 | -17 | -29 | -34 | 5 | – | – | – | – | – | – | – | – | –
CCOC(=O)[C@H](Cc1c[nH]c2ccccc12)NC(=O)[C@@H]1CCCN1C(=O)[C@H](C)CSC(C)=O [I, 1-(D-3-Acetylthio-2-methylpropanoyl)-L-prolyl-L-tryptophan ethyl ester] | – | – | – | -14 | -16 | -26 | -30 | 5 | – | – | – | – | – | – | – | – | –
CCOC(=O)[C@H](CCSC)NC(=O)[C@@H]1CCCN1C(=O)[C@H](C)CSC(C)=O [J, 1-(D-3-Acetylthio-2-methylpropanoyl)-L-prolyl-L-methionine ethyl ester] | – | – | – | -13 | -15 | -27 | -30 | 5 | – | – | – | – | – | – | – | – | –
